Test results: patent publication US20200261605A1, “FUNCTIONALIZED LIPOSOMES FOR IMAGING MISFOLDED PROTEINS” (ALZECA BIOSCIENCES, LLC, priority 2019, published 2020)
pKd: −log10 of the molar value.

How the values were obtained:
α-Synuclein fibrils = α-Synuclein fibrils (Homo sapiens, UniProt P37840); assay: Binding studies with α-Synuclein fibrils (fluorescence of unbound fraction); conditions: 5 μM α-Synuclein fibrils, 2 hours incubation; read-out: dissociation constant, Kd
Experimental: Different dilutions of Conjugate A liposomes or p-FTAA were added and mixed with 5 μM of α-Synuclein fibrils and incubated for 2 hours. The mixture was centrifuged at 21000 g for 5 mins. The supernatant was removed and assayed for fluorescence of p-FTAA that was unbound to the fibrils. Excitation of 405 nm and emission of 574 nm emission was used. A standard curve from known concentrations of liposomes or pFTAA was made. The bound fraction was calculated as the difference between the total pFTAA or pFTAA-liposomes that was incubated and the unbound fraction. […] A dissociation constant of 3 nM was determined for the p-FTAA molecule (FIG. 7B).

[1] = target: tau fibrils (phosphorylated tau-441 (2N4R)) (Homo sapiens, UniProt P10636); assay: Binding studies with tau fibrils (fluorescence, no separation); conditions: 0.85 μM tau fibrils, 2 hours; Ex 360 nm, Em 535 nm
Experimental: Lyophilized tau-441 (2N4R) was dissolved in buffer containing 40 mM HEPES, 5 mM EGTA, 3 mM MgCl2, pH 7.5. Tau was phosphorylated with GSK-3b in the presence of 2 mM ATP at 30° C. for 40 hours. Tau was used at 30-75 μM concentration, and GSK-3b was used at 0.02-0.08 U/pmol of tau. SDS PAGE gel was run to confirm the phosphorylation of tau (FIG. 8).
To make fibrils, the phosphorylated tau was reacted with arachidonic acid (ARA). The p-tau was diluted in 10 mM HEPES, 1 mM EDTA, 5 mM DTT and 150 mM NaCl at pH-7.6 to final concentration of 32 μM and ARA at 37 times molar excess of tau was added. The mixture was incubated for 2 days at 37° C. for 2 days. Fresh DTT was supplemented daily. The oligomers formed were used as seeds for fibril formation. 8 μM of tau seeds were used to form fibrils with 30 μM p-tau in 10 mM HEPES, 1 mM EDTA, 5 mM DTT and 150 mM NaCl at pH-7.6. ARA was used at 37 times molar excess over p-tau monomer and incubated at 37° C. for 2 days. Fresh DTT was added every day.
Different dilutions of p-FTAA molecule were added and mixed with 0.85 μM of tau fibrils and incubated for 2 hours. The mixture was assayed as is without separation of bound and unbound fibrils. Excitation at 360 nm and emission at 535 nm was used for detection of p-FTAA binding to tau fibrils.

Sequence of tau fibrils (phosphorylated tau-441 (2N4R)) (P10636 1-441 isoform P10636-8): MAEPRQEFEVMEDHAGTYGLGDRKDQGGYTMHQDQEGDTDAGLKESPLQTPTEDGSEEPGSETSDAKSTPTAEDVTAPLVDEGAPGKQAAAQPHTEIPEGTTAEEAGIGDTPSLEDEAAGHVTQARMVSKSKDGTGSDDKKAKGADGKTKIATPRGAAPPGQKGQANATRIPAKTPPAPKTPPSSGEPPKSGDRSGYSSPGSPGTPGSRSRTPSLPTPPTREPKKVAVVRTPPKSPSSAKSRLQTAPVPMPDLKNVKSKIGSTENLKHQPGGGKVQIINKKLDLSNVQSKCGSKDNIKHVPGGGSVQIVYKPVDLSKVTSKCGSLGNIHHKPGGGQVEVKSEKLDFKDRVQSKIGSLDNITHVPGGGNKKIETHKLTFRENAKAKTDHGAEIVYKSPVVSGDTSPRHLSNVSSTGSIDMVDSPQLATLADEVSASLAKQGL

O=C(O)Cc1cc(-c2ccc(C(=O)O)s2)sc1-c1ccc(-c2sc(-c3ccc(C(=O)O)s3)cc2CC(=O)O)s1 [p-FTAA, pentameric formyl thiophene acetic acid]
pKd (α-Synuclein fibrils): 8.52
fluorescence with tau fibrils in comparison to p-FTAA only [1]: increase in fluorescence
